According to patent US11000033B2, “Ketone or oxime compound, and herbicide” (NISSAN CHEMICAL CORPORATION, priority 2014, dated 2021):

Columns and labels:
Assay type in all cases: in vivo
Avena fatua = test: Test Example 4: herbicidal effect by soil treatment (symbol I); settings: application herbicide amount 320 g/ha
Procedure, shortened: (§1)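 Seeds were sown in sterilized diluvial soil, covered with about 1.5 cm of soil, and the soil surface was sprayed with a water-diluted emulsion of the compound at a predetermined rate. Plants grew in a greenhouse at 25° C. to 30° C.; effects were scored visually 3 weeks after application.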

Galium spurium [1] = test: Test Example 4: herbicidal effect by soil treatment (symbol Q); settings: application herbicide amount 320 g/ha
Procedure, shortened: as §1

rice = test: Test Example 4: effect on crop by soil treatment (symbol b); settings: application herbicide amount 320 g/ha
Procedure, shortened: (§2)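 Sterilized diluvial soil, spot sowing, ~1.5 cm soil cover; greenhouse 25–30° C.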

wheat [2] = test: Test Example 5: effect on crop by foliage application, plastic box (symbol e); settings: 320 g/ha, 3 weeks after application
Procedure, shortened: (§3)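 Plants were raised from seed in a greenhouse (25° C. to 30° C.) after sowing in a plastic box of sterilized diluvial soil.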

Galium spurium [3] = test: Test Example 5: herbicidal effect by foliage application, plastic box (symbol Q); settings: 320 g/ha, 3 weeks after application
Procedure, shortened: (§4)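 Leaf-applied emulsion, water-diluted to a preset herbicide dose, on two-week-old seedlings raised in a 25° C. to 30° C. greenhouse; injury rated at 3 weeks using earlier criteria.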

Abutilon theophrasti = test: Test Example 4: herbicidal effect by soil treatment (symbol M); settings: application herbicide amount 320 g/ha
Procedure, shortened: as §1

Amaranthus retroflexus [4] = test: Test Example 4: herbicidal effect by soil treatment (symbol N); settings: application herbicide amount 320 g/ha
Procedure, shortened: as §1

Lolium multiflorum Lam. = test: Test Example 4: herbicidal effect by soil treatment (symbol K); settings: application herbicide amount 320 g/ha
Procedure, shortened: as §1

corn = test: Test Example 4: effect on crop by soil treatment (symbol c); settings: application herbicide amount 320 g/ha
Procedure, shortened: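 Diluvial soil (sterilized) in boxes; seeds placed spot-wise alongside weed species; ~1.5 cm covering soil. Greenhouse, 25–30° C.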

soybean [5] = test: Test Example 4: effect on crop by soil treatment (symbol d); settings: application herbicide amount 320 g/ha
Procedure, shortened: as §2

Setaria viridis [6] = test: Test Example 4: herbicidal effect by soil treatment (symbol G); settings: application herbicide amount 320 g/ha
Procedure, shortened: as §1

Alopecurus myosuroides [7] = test: Test Example 5: herbicidal effect by foliage application, plastic box (symbol J); settings: 320 g/ha, 3 weeks after application
Procedure, shortened: as §4

Scirpus juncoides = test: Test Example 1: herbicidal activity, application before weed generation in submerged conditions (symbol B); settings: application herbicide amount 320 g/ha
Procedure, shortened: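 Pre-emergence, paddy conditions: emulsifiable formulation diluted in water, dosed onto floodwater (4 cm depth) on sowing day. Alluvial soil; weeds sown mixed; rice transplanted at 2.5-leaf stage. Greenhouse 25–30 °C, 3 wk. Score 0–5 (5 = ≥90% kill, 0 = ≤5%).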

wheat [8] = test: Test Example 4: effect on crop by soil treatment (symbol e); settings: application herbicide amount 320 g/ha
Procedure, shortened: as §2

Stellaria media = test: Test Example 4: herbicidal effect by soil treatment (symbol P); settings: application herbicide amount 320 g/ha
Procedure, shortened: as §1

Alopecurus myosuroides [9] = test: Test Example 4: herbicidal effect by soil treatment (symbol J); settings: application herbicide amount 320 g/ha
Procedure, shortened: as §1

Digitaria ciliaris = test: Test Example 5: herbicidal effect by foliage application, plastic box (symbol F); settings: 320 g/ha, 3 weeks after application
Procedure, shortened: as §4

Amaranthus retroflexus [10] = test: Test Example 5: herbicidal effect by foliage application, plastic box (symbol N); settings: 320 g/ha, 3 weeks after application
Procedure, shortened: as §4

[11] = test system: Echinochloa crus-galli var. crus-galli; test: Test Example 5: herbicidal effect by foliage application, plastic box (symbol H); settings: 320 g/ha, 3 weeks after application
Procedure, shortened: as §4

Setaria viridis [12] = test: Test Example 5: herbicidal effect by foliage application, plastic box (symbol G); settings: 320 g/ha, 3 weeks after application
Procedure, shortened: as §4

soybean [13] = test: Test Example 5: effect on crop by foliage application, plastic box (symbol d); settings: 320 g/ha, 3 weeks after application
Procedure, shortened: as §3

rice plant = test: Test Example 5: effect on crop by foliage application, plastic box (symbol b); settings: 320 g/ha, 3 weeks after application
Procedure, shortened: as §3

SMILES | Herbicidal effect grade, I: Avena fatua (Avena fatua) | Herbicidal effect grade, Q: Galium spurium (Galium spurium [1]) | Effect on crop grade, b: directly sowed rice plant (rice) | e: wheat, effect on crop (criteria of Test Example 1) (wheat [2]) | Q: Galium spurium, herbicidal effect (criteria of Test Example 1) (Galium spurium [3]) | Herbicidal effect grade, M: Abutilon theophrasti (Abutilon theophrasti) | Herbicidal effect grade, N: Amaranthus retroflexus (Amaranthus retroflexus [4]) | Herbicidal effect grade, K: Lolium multiflorum Lam. (Lolium multiflorum Lam.) | Effect on crop grade, c: corn (corn) | Effect on crop grade, d: soybean (soybean [5]) | Herbicidal effect grade, G: Setaria viridis (Setaria viridis [6]) | J: Alopecurus myosuroides, herbicidal effect (criteria of Test Example 1) (Alopecurus myosuroides [7]) | Herbicidal effect grade, B: Scirpus juncoides (Scirpus juncoides) | Effect on crop grade, e: wheat (wheat [8]) | Herbicidal effect grade, P: Stellaria media (Stellaria media) | Herbicidal effect grade, J: Alopecurus myosuroides (Alopecurus myosuroides [9]) | F: Digitaria ciliaris, herbicidal effect (criteria of Test Example 1) (Digitaria ciliaris) | N: Amaranthus retroflexus, herbicidal effect (criteria of Test Example 1) (Amaranthus retroflexus [10]) | H: Echinochloa crus-galli var. crus-galli, herbicidal effect (criteria of Test Example 1) [11] | G: Setaria viridis, herbicidal effect (criteria of Test Example 1) (Setaria viridis [12]) | further results
CON=C(C)CC1CC(OC(=O)N2CCOCC2)=C(c2c(C)cc(-c3ccc(Cl)cc3F)cc2C)C1=O (centres unmarked) [6-089] | 0 (Herbicidal ratio of 5% or lower (almost no effect)) | 0 (Herbicidal ratio of 5% or lower (almost no effect)) | 0 (Herbicidal ratio of 5% or lower (almost no effect)) | 4 (Herbicidal ratio of 70% or higher and lower than 90%) | 3 (Herbicidal ratio of 40% or higher and lower than 70%) | 0 (Herbicidal ratio of 5% or lower (almost no effect)) | 0 (Herbicidal ratio of 5% or lower (almost no effect)) | 3 (Herbicidal ratio of 40% or higher and lower than 70%) | 0 (Herbicidal ratio of 5% or lower (almost no effect)) | 0 (Herbicidal ratio of 5% or lower (almost no effect)) | 4 (Herbicidal ratio of 70% or higher and lower than 90%) | 5 (Herbicidal ratio of 90% or more (almost completely withered)) | 3 (Herbicidal ratio of 40% or higher and lower than 70%) | 0 (Herbicidal ratio of 5% or lower (almost no effect)) | 0 (Herbicidal ratio of 5% or lower (almost no effect)) | 2 (Herbicidal ratio of 20% or higher and lower than 40%) | – | – | – | – | –
CON=C(C)CC1CC(O)=C(c2c(C)cc(-c3ccsc3)cc2C)C1=O (centres unmarked) [6-106] | 3 (Herbicidal ratio of 40% or higher and lower than 70%) | 0 (Herbicidal ratio of 5% or lower (almost no effect)) | 1 (Herbicidal ratio of 5% or higher and lower than 20%) | 3 (Herbicidal ratio of 40% or higher and lower than 70%) | 3 (Herbicidal ratio of 40% or higher and lower than 70%) | 0 (Herbicidal ratio of 5% or lower (almost no effect)) | 0 (Herbicidal ratio of 5% or lower (almost no effect)) | 3 (Herbicidal ratio of 40% or higher and lower than 70%) | 0 (Herbicidal ratio of 5% or lower (almost no effect)) | 0 (Herbicidal ratio of 5% or lower (almost no effect)) | – | 5 (Herbicidal ratio of 90% or more (almost completely withered)) | 5 (Herbicidal ratio of 90% or more (almost completely withered)) | 0 (Herbicidal ratio of 5% or lower (almost no effect)) | 0 (Herbicidal ratio of 5% or lower (almost no effect)) | 3 (Herbicidal ratio of 40% or higher and lower than 70%) | 5 (Herbicidal ratio of 90% or more (almost completely withered)) | 0 (Herbicidal ratio of 5% or lower (almost no effect)) | 5 (Herbicidal ratio of 90% or more (almost completely withered)) | 5 (Herbicidal ratio of 90% or more (almost completely withered)) | d: soybean, effect on crop (criteria of Test Example 1) (soybean [13]): 1 (Herbicidal ratio of 5% or higher and lower than 20%); b: directly sowed rice plant, effect on crop (criteria of Test Example 1) (rice plant): 3 (Herbicidal ratio of 40% or higher and lower than 70%)
CON=C(C)CC1CC(OC(=O)N(C)C)=C(c2c(C)cc(C)cc2OC)C1=O (centres unmarked) [6-109] | 0 (Herbicidal ratio of 5% or lower (almost no effect)) | 0 (Herbicidal ratio of 5% or lower (almost no effect)) | 1 (Herbicidal ratio of 5% or higher and lower than 20%) | 4 (Herbicidal ratio of 70% or higher and lower than 90%) | 0 (Herbicidal ratio of 5% or lower (almost no effect)) | 0 (Herbicidal ratio of 5% or lower (almost no effect)) | 0 (Herbicidal ratio of 5% or lower (almost no effect)) | 5 (Herbicidal ratio of 90% or more (almost completely withered)) | 0 (Herbicidal ratio of 5% or lower (almost no effect)) | 0 (Herbicidal ratio of 5% or lower (almost no effect)) | – | 5 (Herbicidal ratio of 90% or more (almost completely withered)) | 3 (Herbicidal ratio of 40% or higher and lower than 70%) | 0 (Herbicidal ratio of 5% or lower (almost no effect)) | 0 (Herbicidal ratio of 5% or lower (almost no effect)) | 5 (Herbicidal ratio of 90% or more (almost completely withered)) | 5 (Herbicidal ratio of 90% or more (almost completely withered)) | 4 (Herbicidal ratio of 70% or higher and lower than 90%) | 5 (Herbicidal ratio of 90% or more (almost completely withered)) | 5 (Herbicidal ratio of 90% or more (almost completely withered)) | d: soybean, effect on crop (criteria of Test Example 1) (soybean [13]): 2 (Herbicidal ratio of 20% or higher and lower than 40%); b: directly sowed rice plant, effect on crop (criteria of Test Example 1) (rice plant): 5 (Herbicidal ratio of 90% or more (almost completely withered))
COc1cc(Br)cc(F)c1C1=C(O)CC(CC(C)=O)C1=O (centres unmarked) [7-029] | 0 (Herbicidal ratio of 5% or lower (almost no effect)) | 0 (Herbicidal ratio of 5% or lower (almost no effect)) | 1 (Herbicidal ratio of 5% or higher and lower than 20%) | 2 (Herbicidal ratio of 20% or higher and lower than 40%) | 0 (Herbicidal ratio of 5% or lower (almost no effect)) | 0 (Herbicidal ratio of 5% or lower (almost no effect)) | 0 (Herbicidal ratio of 5% or lower (almost no effect)) | 3 (Herbicidal ratio of 40% or higher and lower than 70%) | 0 (Herbicidal ratio of 5% or lower (almost no effect)) | 0 (Herbicidal ratio of 5% or lower (almost no effect)) | 4 (Herbicidal ratio of 70% or higher and lower than 90%) | 3 (Herbicidal ratio of 40% or higher and lower than 70%) | 0 (Herbicidal ratio of 5% or lower (almost no effect)) | 0 (Herbicidal ratio of 5% or lower (almost no effect)) | 0 (Herbicidal ratio of 5% or lower (almost no effect)) | 1 (Herbicidal ratio of 5% or higher and lower than 20%) | – | – | – | – | –
